Experimental data taken from US7473694B2, “Pyrazolopyrimidine derivatives or pharmaceutically acceptable salts thereof” (Teijin Pharma Limited, priority 2005, dated 2009).

Biological target: recombinant human MAPKAP-K2 (Homo sapiens, UniProt P49137)
Assay: Inhibition of MAPKAP-K2 enzyme activity (33P-ATP peptide substrate phosphorylation)
Format: biochemical
Settings: recombinant human MAPKAP-K2 10 mU, room temperature 30 min, peptide substrate Lys-Lys-Leu-Asn-Arg-Thr-Leu-Ser-Val-Ala; read-out: Activity strength (IC50 against MAPKAP-K2)
Procedure: General Measurement Method for Determining Inhibition of MAPKAP-K2 Enzyme Activity
(Preparation of Solutions of Compounds)
Each compound was dissolved to DMSO to prepare a solution with a concentration of 20 mmol/L and this solution was stored at −20° C. This stock solution was diluted with DMSO successively to prepare solutions with 200-fold concentrations of a necessary range. These solutions were further diluted with water at a ratio of 1:20 to prepare solutions with 10-fold concentrations of a necessary range. Each of these solutions (5 μL) was used for each reaction in 50 μL-scale. Through the dilution series of all compounds, the final DMSO concentration was kept at 0.5%. Conventional tests for the compounds were carried out at a final concentration ranging from 100 μmol/L to 0.03 μmol/L, but in some cases, tests were carried out at lower concentrations, depending on activity.
(Measurements of MAPKAP-K2 Enzyme Activity)
To a DMSO solution (5 μL) containing a test compound at 5%, a solution (25 μL) containing a peptide substrate [peptide substrate […], ATP 20 μmol/L, Tris buffer 60 mmol/L (pH 7.5), EGTA 0.2 mmol/L, β-mercaptoethanol 0.2%, magnesium acetate 20 mmol/L, [γ-33P]ATP 0.1 μCi (specific radioactivity ca. 110 TBq/mmol)] was added. The reaction was initiated by further adding a solution (20 μL) containing MAPKAP-K2 enzyme [recombinant human MAPKAP-K2 10 mU, Tris buffer 50 mmol/L (pH 7.5), EGTA 0.1 mmol/L, β-mercaptoethanol 0.1%, BSA 0.1%]. After the reaction was carried out at room temperature for 30 min, 200 mmol/L phosphoric acid (50 μL) was added to quench the reaction, and 90 μL of the reaction mixture was adsorbed on a multiscreen PH plate (Millipore). The plate was washed with 100 mmol/L phosphoric acid. After the plate was dried, 30 μL of MicroScint™-O (Perkin-Elmer) was added here, and the radioactivity (cpm) was measured on a scintillation counter to determine the inhibitory activity. The peptide substrate was Lys-Lys-Leu-Asn-Arg-Thr-Leu-Ser-Val-Ala.
(Note) % Reference=(X−B)/(Tot−B)×100 % Inhibition=100%−% Reference • X=count per minute of the well with a test compound • B=count per minute of the well without the enzyme • Tot=count per minute of the well with only DMSO solvent and without a test compound (Calculation of MAPKAP-K2 Inhibitory Activity) • IC50 value=a concentration of compound at which 50% inhibition is observed • The efficacy of each compound in Tables A to G against MAPKAP-K2 is listed in the following Table J.

Chain of recombinant human MAPKAP-K2 (P49137 whole entry): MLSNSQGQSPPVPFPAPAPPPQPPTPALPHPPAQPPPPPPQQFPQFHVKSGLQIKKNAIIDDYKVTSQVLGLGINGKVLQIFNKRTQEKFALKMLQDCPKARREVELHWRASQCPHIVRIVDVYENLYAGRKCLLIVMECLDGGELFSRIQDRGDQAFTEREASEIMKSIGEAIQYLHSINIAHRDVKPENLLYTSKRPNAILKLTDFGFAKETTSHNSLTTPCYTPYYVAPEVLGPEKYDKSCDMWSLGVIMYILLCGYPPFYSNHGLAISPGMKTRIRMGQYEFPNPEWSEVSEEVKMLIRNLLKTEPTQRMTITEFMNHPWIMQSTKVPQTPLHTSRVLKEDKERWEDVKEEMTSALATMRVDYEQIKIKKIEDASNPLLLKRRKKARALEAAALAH

Row | Compound | IC50 [µM]
1 | CCOc1ccc(Nc2c3c(nc4ccnn24)N([C@H]2CC[C@H](N)CC2)CC3)cc1 [A-002] | < 10
2 | CCOc1ccc(Nc2c3c(nc4ccnn24)N(C2CCCC(N)C2)CC3)cc1 (stereo not shown) [A-003] | 10 to 50
3 | CCOc1ccc(Nc2c3c(nc4ccnn24)N([C@H]2CCCC[C@@H]2N)CC3)cc1 [A-004] | 50 to 100
4 | CCOc1ccc(Nc2c3c(nc4ccnn24)N(CCN)CC3)cc1 [A-005] | < 10
5 | CCOc1ccc(Nc2c3c(nc4ccnn24)N(CCCN)CC3)cc1 [A-006] | < 10
6 | CCOc1ccc(Nc2c3c(nc4ccnn24)N(CC(C)(C)CN)CC3)cc1 [A-007] | 50 to 100
7 | CCOc1ccc(Nc2c3c(nc4ccnn24)N([C@H]2CCCNC2)CC3)cc1 [A-008, (S)-(4-ethoxyphenyl)(5-piperidin-3-yl-6,7-dihydro-5H-1,4,5,8a-tetraaza-s-indacen-8-yl)amine] | < 10
8 | CCOc1ccc(Nc2c3c(nc4ccnn24)N(C2CCNCC2)CC3)cc1 [A-009] | < 10
9 | CCOc1ccc(Nc2c3c(nc4ccnn24)N(C2CCN(Cc4ccccc4)C2)CC3)cc1 (stereo not shown) [A-010] | 10 to 50
10 | CCOc1ccc(Nc2c3c(nc4ccnn24)N(C2CCN(CC)C2)CC3)cc1 (stereo not shown) [A-012] | 10 to 50
11 | CCOc1ccc(Nc2c3c(nc4ccnn24)N(C2CCNC2)CC3)cc1 (stereo not shown) [A-013] | < 10
12 | CCOc1ccc(Nc2c3c(nc4ccnn24)N(CC2CCCNC2)CC3)cc1 (stereo not shown) [A-014] | 50 to 100
13 | CCOc1ccc(Nc2c3c(nc4c(F)cnn24)N([C@H]2CCCNC2)CC3)cc1 [A-018, (S)-(4-Ethoxyphenyl)(3-fluoro-5-piperidin-3-yl-6,7-dihydro-5H-1,4,5,8a-tetraaza-s-indacen-8-yl)amine] | < 10
14 | CCOc1ccc(Nc2c3c(nc4c(F)c(F)nn24)N([C@H]2CCCNC2)CC3)cc1 [A-019, (S)-(2,3-Difluoro-5-piperidin-3-yl-6,7-dihydro-5H-1,4,5,8a-tetraaza-s-indacen-8-yl)(4-ethoxyphenyl)amine] | 10 to 50
15 | CCOc1ccc(Nc2c3c(nc4ccnn24)N(O)CC3)cc1 [A-020, 8-(4-ethoxyphenylamino)-6,7-dihydro-1,4,5,8a-tetraaza-s-indacen-5-ol] | < 10
16 | Cc1nc2ccc(Nc3c4c(nc5ccnn35)N([C@H]3CCCNC3)CC4)cc2s1 [A-022, (S)-(2-methylbenzothiazol-6-yl)(5-piperidin-3-yl-6,7-dihydro-5H-1,4,5,8a-tetraaza-s-indacen-8-yl)amine] | < 10
17 | COCCOc1ccc(Nc2c3c(nc4ccnn24)N([C@H]2CCCNC2)CC3)cc1 [A-023, (S)-[4-(2-methoxyethoxy)phenyl](5-piperidin-3-yl-6,7-dihydro-5H-1,4,5,8a-tetraaza-s-indacen-8-yl)amine] | < 10
18 | CCOc1ccc(Nc2c3c(nc4ccnn24)N([C@H]2CCCNC2)C(CO)C3)cc1 (stereo partly drawn) [A-024, (S)-{8-(4-ethoxyphenylamino)-5-piperidin-3-yl-6,7-dihydro-5H-1,4,5,8a-tetraaza-s-indacen-6-yl]methanol] | < 10
19 | c1ccc(CNc2c3c(nc4ccnn24)N([C@H]2CCCNC2)CC3)cc1 [A-025] | < 10
20 | CC(C)(C)CNc1c2c(nc3ccnn13)N([C@H]1CCCNC1)CC2 [A-026] | < 10
21 | c1cc2nc3c(c(NC4CCCC4)n2n1)CCN3[C@H]1CCCNC1 [A-027] | < 10
22 | c1ccc(Nc2c3c(nc4ccnn24)N([C@H]2CCCNC2)CC3)cc1 [A-032] | < 10
23 | c1cc2nc3c(c(Nc4ccc5cn[nH]c5c4)n2n1)CCN3[C@H]1CCCNC1 [A-058] | < 10
24 | FC(F)(F)c1nc2cc(Nc3c4c(nc5ccnn35)N([C@H]3CCCNC3)CC4)ccc2[nH]1 [A-091] | < 10
25 | Nc1c2c(nc3ccnn13)N([C@H]1CCCNC1)CC2 [A-092, (S)-5-piperidin-3-yl-6,7-dihydro-5H-1,4,5,8a-tetraaza-s-indacen-8-ylamine] | < 10

Row | Compound | IC50 [µM]
26 | c1coc(Nc2c3c(nc4ccnn24)N([C@H]2CCCNC2)CC3)c1 [A-095, (S)-furan-2-yl-(5-piperidin-3-yl-6,7-dihydro-5H-1,4,5,8a-tetraaza-s-indacen-8-yl)amine] | < 10
27 | CNc1c2c(nc3ccnn13)N([C@H]1CCCNC1)CC2 [A-096] | < 10
28 | COC(=O)c1ccc(Nc2c3c(nc4ccnn24)N(C2CCCNC2)CC3)cc1 (stereo not shown) [A-099] | < 10
29 | c1cc2nc3c(c(Nc4ccc5sccc5c4)n2n1)CCN3[C@H]1CCCNC1 [A-100] | < 10
30 | CCOc1ccc(Nc2c3c(nc4ccnn24)N([C@H]2CCCNC2)CCC3)cc1 [B-001] | < 10
31 | CCOc1ccc(Nc2c3c(nc4ccnn24)N([C@H]2CC[C@H](N)CC2)CCC3)cc1 [B-002, [5-(4-aminocyclohexyl)-5,6,7,8-tetrahydro-1,4,5,9a-tetraazacyclopenta[b]naphthalen-9-yl](4-ethoxyphenyl)amine] | < 10
32 | CCOc1ccc(Nc2c3c(nc4ccnn24)N([C@@H]2CCCC[C@@H]2N)CCC3)cc1 [B-003] | 10 to 50
33 | CCOc1ccc(Nc2c3c(nc4ccnn24)N(CCN(C)C)CCC3)cc1 [B-007] | 50 to 100
34 | CCOc1ccc(Nc2c3c(nc4ccnn24)N(C2CCCC(N)C2)CCC3)cc1 (stereo not shown) [B-013] | 50 to 100
35 | CCOc1ccc(Nc2c3c(nc4ccnn24)N(C2CCCNC2)CCC3)cc1 (stereo not shown) [B-014] | < 10
36 | CCOc1ccc(Nc2c3c(nc4ccnn24)N(CCCN)CCC3)cc1 [B-015] | 10 to 50
37 | CCOc1ccc(Nc2c3c(nc4ccnn24)N(C2CCN(Cc4ccccc4)C2)CCC3)cc1 (stereo not shown) [B-016] | 10 to 50
38 | CCOc1ccc(Nc2c3c(nc4ccnn24)N(C2CCNCC2)CCC3)cc1 [B-017] | < 10
39 | CCOc1ccc(Nc2c3c(nc4ccnn24)N(Cc2cccnc2)CCC3)cc1 [B-018] | 50 to 100
40 | CCOc1ccc(Nc2c3c(nc4ccnn24)N(C2CCNC2)CCC3)cc1 (stereo not shown) [B-021] | < 10
41 | CCOc1ccc(Nc2c3c(nc4ccnn24)N(C2CCN(CC)C2)CCC3)cc1 (stereo not shown) [B-022] | 10 to 50
42 | CCOc1ccc(Nc2c3c(nc4ccnn24)N([C@H]2CCCNC2)CCCC3)cc1 [C-001, (S)-(4-ethoxyphenyl)(5-piperidin-3-yl-6,7,8,9-tetrahydro-5H-1,4,5,10a-tetraazacyclohepta[f]inden-10-yl)amine] | < 10
43 | CCOc1ccc(Nc2c3c(nc4ccnn24)N([C@H]2CCCNC2)C(=O)C3)cc1 [D-001] | 10 to 50
44 | CCOc1ccc(Nc2c3c(nc4ccnn24)N(C[C@H]2CCCNC2)C(=O)C3)cc1 [D-002] | 50 to 100
45 | CCOc1ccc(Nc2c3c(nc4ccnn24)N(CCN)C(=O)C3)cc1 [D-003] | 50 to 100
46 | CCOc1ccc(Nc2c3c(nc4ccnn24)N([C@H]2CC[C@H](N)CC2)C(=O)C3)cc1 [D-006] | 10 to 50
47 | CCOc1ccc(Nc2c3ccn([C@H]4CCCNC4)c3nc3ccnn23)cc1 [F-001, (S)-(4-ethoxyphenyl)(5-piperidin-3-yl-5H-14,5,8a-tetraaza-s-indacen-8-yl)amine] | < 10
48 | CCOc1ccc(Nc2c3cc(CO)n([C@H]4CCCNC4)c3nc3ccnn23)cc1 [F-002] | 10 to 50
49 | CCOc1ccc(Nc2c3c(nc4ccnn24)N([C@H]2CCCNC2)CC=CC3)cc1 [G-001, (S)-(4-ethoxyphenyl)(5-piperidin-3-yl-6,9-dihydro-5H-1,4,5,10a-tetraazacyclohepta[f]inden-10-yl)amine] | < 10
